Several values for one entry are separate records, joined by “and”; a condition that tells them apart may be missing. Equal entries are not always repeated. Activity calls are given as the source filed them.
Assays:
[1] = target: T1, ATP-dependent translocase ABCB1 (Homo sapiens, UniProt P08183); assay: P-gp JC-1 efflux blockade concentration-response – Jurkat-DNR cells, flow cytometry, set 2, dose response (AID 504569); assay type: functional; settings: read-out: EC50_MICROM_;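 note: potency of pump inhibitors that raise cellular JC-1 green fluorescence up to the nicardipine level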
[2] = target: T1, ATP-dependent translocase ABCB1; assay: inhibition of BCRP-mediated JC-1 efflux – Ig-MXP3 cells, flow cytometry, set 2, dose response (AID 504566); assay type: functional; settings: read-out: EC50_MICROM_;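 note: flow cytometry median green fluorescence of retained JC-1 dye; potency of efflux pump inhibition measured as rising substrate retention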
[3] = target: Arf-GAP with SH3 domain, ANK repeat and PH domain-containing protein 1 (Homo sapiens, UniProt Q9ULH1); assay type: functional;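 note: biochemical fluorescence polarization dose–response screen measuring inhibition of ASAP1; ASAP1 GAP domain stimulating GTP hydrolysis by truncated human ARF1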
Estrogen receptor = target: T2, Estrogen receptor (Homo sapiens, UniProt P03372);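 note: potency for inhibiting coactivator peptide recruitment to the receptor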
T2 sequence (P03372 whole entry): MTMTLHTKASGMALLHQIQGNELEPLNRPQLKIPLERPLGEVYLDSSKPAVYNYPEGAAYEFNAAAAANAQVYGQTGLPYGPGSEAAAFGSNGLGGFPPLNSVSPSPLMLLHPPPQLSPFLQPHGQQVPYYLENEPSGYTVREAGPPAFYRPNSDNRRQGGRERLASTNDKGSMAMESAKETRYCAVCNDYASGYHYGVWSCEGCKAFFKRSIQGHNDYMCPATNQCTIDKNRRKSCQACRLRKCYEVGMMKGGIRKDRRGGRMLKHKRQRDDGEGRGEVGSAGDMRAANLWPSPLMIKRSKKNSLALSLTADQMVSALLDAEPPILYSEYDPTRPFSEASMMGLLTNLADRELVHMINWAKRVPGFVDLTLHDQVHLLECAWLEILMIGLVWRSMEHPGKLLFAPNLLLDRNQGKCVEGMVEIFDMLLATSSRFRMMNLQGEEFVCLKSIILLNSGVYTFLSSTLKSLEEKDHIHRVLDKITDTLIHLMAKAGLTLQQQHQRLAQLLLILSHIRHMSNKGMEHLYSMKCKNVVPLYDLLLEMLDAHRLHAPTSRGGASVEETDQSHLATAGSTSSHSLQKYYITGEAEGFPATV

[4] = cytotoxicity toward MDA-MB-231 breast cancer cells – cell-based, CellTiter-Glo luminescence, cherry-pick, cytotoxicity control for RAD54 inhibitor project, dose response (AID 651692); assay type: functional
[5] = target: T3, DNA repair and recombination protein RAD54-like (Homo sapiens, UniProt Q92698); assay: RAD54 Holliday junction migration blockers – biochemical, fluorescence, cherry-picked samples, dose series, confirmation (AID 651657); assay type: functional
T3 sequence (Q92698 whole entry): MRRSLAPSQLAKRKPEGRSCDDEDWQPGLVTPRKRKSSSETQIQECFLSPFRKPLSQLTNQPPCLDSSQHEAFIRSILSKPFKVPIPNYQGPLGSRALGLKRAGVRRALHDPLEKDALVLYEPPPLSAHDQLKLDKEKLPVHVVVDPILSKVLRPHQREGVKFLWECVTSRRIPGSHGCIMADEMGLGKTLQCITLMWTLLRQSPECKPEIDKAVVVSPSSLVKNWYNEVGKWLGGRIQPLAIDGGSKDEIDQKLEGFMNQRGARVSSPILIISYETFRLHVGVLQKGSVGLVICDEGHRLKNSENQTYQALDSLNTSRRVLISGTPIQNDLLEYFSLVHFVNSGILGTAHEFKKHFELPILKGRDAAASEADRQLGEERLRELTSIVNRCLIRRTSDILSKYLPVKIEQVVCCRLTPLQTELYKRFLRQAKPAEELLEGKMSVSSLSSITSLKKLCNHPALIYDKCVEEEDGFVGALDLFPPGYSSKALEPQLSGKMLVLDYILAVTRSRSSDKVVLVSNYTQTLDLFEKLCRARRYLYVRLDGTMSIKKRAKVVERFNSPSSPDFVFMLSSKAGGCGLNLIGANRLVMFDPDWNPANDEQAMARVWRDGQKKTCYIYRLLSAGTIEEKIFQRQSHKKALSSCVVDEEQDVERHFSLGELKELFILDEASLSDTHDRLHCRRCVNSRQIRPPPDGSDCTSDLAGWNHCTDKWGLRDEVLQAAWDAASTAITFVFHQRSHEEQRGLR

Beta-lactamase [6] = target: Beta-lactamase (Salmonella choleraesuis (strain SC-B67), UniProt Q5J463); assay: Epi-absorbance-based counterscreen for selective VIM-2 inhibitors: dose response biochemical high throughput screening assay to identify inhibitors of TEM-1 serine-beta-lactamase.
Beta-lactamase [7] = target: T4, Beta-lactamase (Pseudomonas aeruginosa, UniProt Q79MP6); assay: inhibition of IMP-1 beta-lactamase activity – biochemical, epi-absorbance, selectivity assay for VIM-2 inhibitor project, dose response (AID 1920)
Beta-lactamase [8] = target: T4, Beta-lactamase; assay: […] counterscreen for selective VIM-2 inhibitors: dose response biochemical high throughput screening assay to identify inhibitors of IMP-1 metallo-beta-lactamase.
[9] = viability loss in Vero cells – cell-based, purified and synthesized samples, set 8, cytotoxicity control for M. tuberculosis inhibitor project (AID 602431); assay type: functional; settings: Mycobacterium tuberculosis
[10] = target: T1, ATP-dependent translocase ABCB1; assay: inhibition of P-gp mediated JC-1 efflux – Jurkat-DNR cells, flow cytometry, dose response (AID 1689); assay type: functional
Streptococcus = assay: GAS UMAA2166 growth inhibition – luminescence, BacTiterGlo, counter-screen for streptokinase expression inhibitor project, dose response (AID 1915); assay type: functional, organism-based;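 note: potency for reduction of bacterial viability or growth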
[11] = NIH3T3 cell viability loss – ATP luminescence, mouse fibroblasts, counter-screen, dose response (AID 2010); assay type: functional, cell-based;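 note: cells exposed to compound for about 90 hours before reading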
[12] = test system: Streptococcus sp. 'group A'; assay: Streptococcus pyogenes SK(-)GAS viability under kanamycin – luminescence, BacTiterGlo, confirmation, counter-screen for streptokinase expression inhibitor project, dose response (AID 1900); assay type: functional, organism-based
[13] = Trypanosoma cruzi growth suppression in host cells – NIH3T3 host cells, beta-gal luminescence, confirmation (AID 2044); assay type: functional, cell-based;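 note: intracellular parasites grown in NIH/3T3 mouse fibroblasts as host cells; luminescent beta-galactosidase reporter signal from transgenic T. cruzi replicating inside host cells; inhibitors lower the luminescence signal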
Streptokinase A = target: T5, Streptokinase A (Streptococcus pyogenes serotype M1, UniProt P10520); assay: viability-normalized secreted streptokinase activity reduction – plasminogen activation absorbance, OD405, dose response (AID 1914); assay type: functional, Streptococcus pyogenes M1 GAS;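 note: secreted streptokinase activity via plasminogen activation per viability signal from cell pellet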
T5 sequence (P10520 whole entry): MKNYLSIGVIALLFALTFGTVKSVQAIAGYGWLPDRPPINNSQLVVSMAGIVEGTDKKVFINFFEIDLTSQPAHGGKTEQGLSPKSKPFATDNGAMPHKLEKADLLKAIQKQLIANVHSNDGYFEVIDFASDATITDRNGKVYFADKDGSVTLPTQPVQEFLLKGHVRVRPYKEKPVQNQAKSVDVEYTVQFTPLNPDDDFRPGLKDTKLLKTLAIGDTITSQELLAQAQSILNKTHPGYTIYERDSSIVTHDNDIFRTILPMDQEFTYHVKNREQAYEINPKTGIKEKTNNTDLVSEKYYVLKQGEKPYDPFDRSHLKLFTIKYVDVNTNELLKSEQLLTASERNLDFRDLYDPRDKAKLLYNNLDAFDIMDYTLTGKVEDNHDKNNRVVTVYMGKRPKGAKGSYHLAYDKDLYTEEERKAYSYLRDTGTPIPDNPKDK

[14] = target: Broad substrate specificity ATP-binding cassette transporter ABCG2 (Homo sapiens, UniProt Q9UNQ0); assay: blockers of JC-1 export by ABCG2 – Ig-MXP3 cells, flow cytometry, dose response (AID 1690); assay type: functional
Vero = assay: viability of Vero cells under compound – cytotoxicity control for flavivirus capping enzyme inhibitors (AID 588742); assay type: functional; settings: Chlorocebus sabaeus
Protein RecA = target: T6, Protein RecA (Mycobacterium tuberculosis, UniProt P9WHJ3); assay: Fluorescence Cell-Free Homogeneous Dose Retest to Identify Inhibitors of RecA-Intein Splicing Activity. [Related pubchem assays (depositor defined):AID2097, AID2223, AID489010, AID492950]; assay type: functional
T6 sequence (P9WHJ3 whole entry): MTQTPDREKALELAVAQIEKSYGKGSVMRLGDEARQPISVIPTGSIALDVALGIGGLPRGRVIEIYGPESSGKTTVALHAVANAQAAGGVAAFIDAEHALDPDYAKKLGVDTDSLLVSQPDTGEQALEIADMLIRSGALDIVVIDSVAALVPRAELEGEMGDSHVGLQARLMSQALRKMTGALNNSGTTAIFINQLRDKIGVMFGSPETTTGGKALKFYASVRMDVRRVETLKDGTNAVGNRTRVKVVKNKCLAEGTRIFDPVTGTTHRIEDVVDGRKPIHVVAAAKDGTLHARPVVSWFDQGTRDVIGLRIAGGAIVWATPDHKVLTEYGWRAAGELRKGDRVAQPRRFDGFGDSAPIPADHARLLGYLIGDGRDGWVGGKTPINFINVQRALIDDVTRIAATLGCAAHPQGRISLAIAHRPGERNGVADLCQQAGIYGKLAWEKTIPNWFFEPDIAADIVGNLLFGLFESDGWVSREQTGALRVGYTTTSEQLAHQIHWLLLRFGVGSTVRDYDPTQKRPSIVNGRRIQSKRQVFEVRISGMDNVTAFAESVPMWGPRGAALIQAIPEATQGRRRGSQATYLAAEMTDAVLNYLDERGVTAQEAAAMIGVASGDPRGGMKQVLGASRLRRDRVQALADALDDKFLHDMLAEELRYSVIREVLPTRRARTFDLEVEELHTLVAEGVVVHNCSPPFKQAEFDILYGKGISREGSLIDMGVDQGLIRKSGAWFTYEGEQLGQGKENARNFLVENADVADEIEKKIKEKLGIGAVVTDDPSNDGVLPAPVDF

[15] = target: T7, Replicative DNA helicase DnaB (Mycobacterium tuberculosis, UniProt P9WMR3); assay: DnaB intein splicing inhibitors, dose response, biochemical, cell-free fluorescence (AID 449749); assay type: functional
T7 sequence (P9WMR3 whole entry): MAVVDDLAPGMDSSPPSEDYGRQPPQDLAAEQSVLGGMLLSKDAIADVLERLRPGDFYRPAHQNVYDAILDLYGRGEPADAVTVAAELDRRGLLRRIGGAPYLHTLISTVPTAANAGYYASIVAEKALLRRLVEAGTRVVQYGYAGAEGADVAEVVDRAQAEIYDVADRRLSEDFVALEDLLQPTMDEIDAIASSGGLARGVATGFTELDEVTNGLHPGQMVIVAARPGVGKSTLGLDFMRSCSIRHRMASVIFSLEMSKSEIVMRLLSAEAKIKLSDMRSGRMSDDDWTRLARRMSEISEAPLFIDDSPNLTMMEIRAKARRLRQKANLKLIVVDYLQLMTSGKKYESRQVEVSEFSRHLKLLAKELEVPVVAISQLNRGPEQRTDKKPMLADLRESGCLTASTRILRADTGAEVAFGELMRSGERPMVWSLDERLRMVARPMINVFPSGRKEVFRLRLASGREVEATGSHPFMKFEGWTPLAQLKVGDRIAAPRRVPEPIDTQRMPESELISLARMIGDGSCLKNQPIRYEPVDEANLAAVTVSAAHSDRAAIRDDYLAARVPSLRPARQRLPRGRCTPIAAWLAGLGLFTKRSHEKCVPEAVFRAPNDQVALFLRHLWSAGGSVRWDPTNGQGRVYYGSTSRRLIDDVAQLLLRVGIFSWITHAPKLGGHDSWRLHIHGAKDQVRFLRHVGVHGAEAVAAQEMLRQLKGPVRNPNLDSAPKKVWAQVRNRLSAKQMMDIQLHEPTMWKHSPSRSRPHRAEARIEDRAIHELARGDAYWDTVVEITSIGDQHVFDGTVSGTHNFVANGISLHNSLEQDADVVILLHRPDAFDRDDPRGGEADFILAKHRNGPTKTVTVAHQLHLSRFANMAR

Genome polyprotein = Genome polyprotein (dengue virus type 2, UniProt P29990); assay: flavivirus cap methylation enzyme inhibition – biochemical, confirmation dose response, primary screen (AID 588689); assay type: functional
[16] = target: Hepatocyte nuclear factor 4-alpha (Homo sapiens, UniProt P41235); assay type: functional, cell-based;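 note: biochemical luminescence-based dose-response counterscreen measuring inhibition of HNF4 dimerization, run alongside a screen for blockers of ABHD5–perilipin-5 interaction; split luciferase complementation of HNF4 fusion proteins in cell lysate measuring dimerization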
[17] = Counterscreen for […] of the human trace amine associated receptor 1 (TAAR1): Fluorescence-based cell-based high throughput dose response assay to identify nonselective Ga16 agonists.; assay type: functional
[18] = Counterscreen for antagonists of the human trace amine associated receptor 1 (hTAAR1): Fluorescence-based cell-based high throughput dose response assay to identify nonselective Ga16 antagonists.; assay type: functional
[19] = target: Eukaryotic translation initiation factor 4E (Mus musculus, UniProt P63073); assay: blockers of eIF4G binding by eIF4E – biochemical, TR-FRET, dose response (AID 855); assay type: functional;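 note: potency for disrupting eIF4E binding to eIF4GI seen as loss of FRET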
[20] = target: T8, Beta-2 adrenergic receptor (Homo sapiens, UniProt P07550); assay: ADRB2 activation measured by internalization – cell-based, FAP fluorogen, flow cytometry, cherry pick 1, dose response (AID 588763); assay type: functional
[21] = target: T8, Beta-2 adrenergic receptor; assay: Dose response for HTS for Beta-2AR agonists via FAP method from Powderset1.; assay type: functional

T8 sequence (P07550 whole entry): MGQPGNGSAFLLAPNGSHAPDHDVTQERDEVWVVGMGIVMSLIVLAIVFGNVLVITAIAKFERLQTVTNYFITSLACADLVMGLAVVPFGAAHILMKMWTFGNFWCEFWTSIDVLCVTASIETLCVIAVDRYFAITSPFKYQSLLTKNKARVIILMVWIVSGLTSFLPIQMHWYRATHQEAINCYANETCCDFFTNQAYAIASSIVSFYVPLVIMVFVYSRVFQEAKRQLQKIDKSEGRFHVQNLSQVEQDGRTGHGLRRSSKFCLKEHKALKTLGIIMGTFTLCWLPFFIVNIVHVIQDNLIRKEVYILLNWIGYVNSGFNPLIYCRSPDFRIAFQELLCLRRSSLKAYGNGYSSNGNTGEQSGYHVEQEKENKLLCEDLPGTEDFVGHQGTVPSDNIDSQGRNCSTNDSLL
T1 sequence (P08183 whole entry): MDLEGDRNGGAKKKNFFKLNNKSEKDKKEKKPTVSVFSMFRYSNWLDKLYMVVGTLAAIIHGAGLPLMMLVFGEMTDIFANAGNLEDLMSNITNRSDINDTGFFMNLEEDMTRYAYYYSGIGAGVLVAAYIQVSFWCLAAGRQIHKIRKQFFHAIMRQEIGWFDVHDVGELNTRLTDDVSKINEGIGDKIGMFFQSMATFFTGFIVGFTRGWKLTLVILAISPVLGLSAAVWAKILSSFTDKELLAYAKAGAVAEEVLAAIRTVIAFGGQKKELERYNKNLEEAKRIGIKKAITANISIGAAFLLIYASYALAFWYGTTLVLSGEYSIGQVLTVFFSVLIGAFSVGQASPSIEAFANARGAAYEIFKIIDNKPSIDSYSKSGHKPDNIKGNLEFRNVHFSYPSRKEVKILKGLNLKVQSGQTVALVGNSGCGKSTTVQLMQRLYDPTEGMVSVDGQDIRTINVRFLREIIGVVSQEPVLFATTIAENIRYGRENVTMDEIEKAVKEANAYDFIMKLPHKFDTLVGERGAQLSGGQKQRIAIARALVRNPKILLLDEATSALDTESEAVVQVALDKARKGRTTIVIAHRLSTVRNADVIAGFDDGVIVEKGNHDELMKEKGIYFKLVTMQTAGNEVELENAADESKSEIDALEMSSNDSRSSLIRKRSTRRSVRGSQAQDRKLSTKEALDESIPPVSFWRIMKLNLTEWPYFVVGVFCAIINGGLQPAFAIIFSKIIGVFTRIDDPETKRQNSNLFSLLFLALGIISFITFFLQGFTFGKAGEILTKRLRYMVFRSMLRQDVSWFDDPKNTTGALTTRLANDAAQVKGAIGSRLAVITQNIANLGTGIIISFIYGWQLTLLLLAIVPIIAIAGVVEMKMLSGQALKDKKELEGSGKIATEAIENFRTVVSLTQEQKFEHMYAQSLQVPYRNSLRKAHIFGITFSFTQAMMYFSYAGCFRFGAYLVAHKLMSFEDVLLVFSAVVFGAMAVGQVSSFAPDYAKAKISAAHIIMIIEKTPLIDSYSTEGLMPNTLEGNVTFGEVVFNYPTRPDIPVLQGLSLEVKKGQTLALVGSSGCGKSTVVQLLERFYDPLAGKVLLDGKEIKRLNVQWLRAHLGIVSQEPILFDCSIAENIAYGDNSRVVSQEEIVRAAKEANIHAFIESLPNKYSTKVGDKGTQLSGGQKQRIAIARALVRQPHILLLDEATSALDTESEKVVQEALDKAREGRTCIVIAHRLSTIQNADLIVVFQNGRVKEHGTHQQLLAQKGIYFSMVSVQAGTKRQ
T4 sequence (Q79MP6 whole entry): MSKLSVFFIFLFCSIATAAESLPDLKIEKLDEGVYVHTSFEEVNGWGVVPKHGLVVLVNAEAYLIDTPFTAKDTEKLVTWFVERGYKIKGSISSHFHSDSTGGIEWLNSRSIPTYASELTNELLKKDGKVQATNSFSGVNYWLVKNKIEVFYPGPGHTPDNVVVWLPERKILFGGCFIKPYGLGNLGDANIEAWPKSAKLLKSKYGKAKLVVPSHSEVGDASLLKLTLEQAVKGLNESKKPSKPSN
Chain of Arf-GAP with SH3 domain, ANK repeat and PH domain-containing protein 1 (Q9ULH1 whole entry, the tested form may be a part): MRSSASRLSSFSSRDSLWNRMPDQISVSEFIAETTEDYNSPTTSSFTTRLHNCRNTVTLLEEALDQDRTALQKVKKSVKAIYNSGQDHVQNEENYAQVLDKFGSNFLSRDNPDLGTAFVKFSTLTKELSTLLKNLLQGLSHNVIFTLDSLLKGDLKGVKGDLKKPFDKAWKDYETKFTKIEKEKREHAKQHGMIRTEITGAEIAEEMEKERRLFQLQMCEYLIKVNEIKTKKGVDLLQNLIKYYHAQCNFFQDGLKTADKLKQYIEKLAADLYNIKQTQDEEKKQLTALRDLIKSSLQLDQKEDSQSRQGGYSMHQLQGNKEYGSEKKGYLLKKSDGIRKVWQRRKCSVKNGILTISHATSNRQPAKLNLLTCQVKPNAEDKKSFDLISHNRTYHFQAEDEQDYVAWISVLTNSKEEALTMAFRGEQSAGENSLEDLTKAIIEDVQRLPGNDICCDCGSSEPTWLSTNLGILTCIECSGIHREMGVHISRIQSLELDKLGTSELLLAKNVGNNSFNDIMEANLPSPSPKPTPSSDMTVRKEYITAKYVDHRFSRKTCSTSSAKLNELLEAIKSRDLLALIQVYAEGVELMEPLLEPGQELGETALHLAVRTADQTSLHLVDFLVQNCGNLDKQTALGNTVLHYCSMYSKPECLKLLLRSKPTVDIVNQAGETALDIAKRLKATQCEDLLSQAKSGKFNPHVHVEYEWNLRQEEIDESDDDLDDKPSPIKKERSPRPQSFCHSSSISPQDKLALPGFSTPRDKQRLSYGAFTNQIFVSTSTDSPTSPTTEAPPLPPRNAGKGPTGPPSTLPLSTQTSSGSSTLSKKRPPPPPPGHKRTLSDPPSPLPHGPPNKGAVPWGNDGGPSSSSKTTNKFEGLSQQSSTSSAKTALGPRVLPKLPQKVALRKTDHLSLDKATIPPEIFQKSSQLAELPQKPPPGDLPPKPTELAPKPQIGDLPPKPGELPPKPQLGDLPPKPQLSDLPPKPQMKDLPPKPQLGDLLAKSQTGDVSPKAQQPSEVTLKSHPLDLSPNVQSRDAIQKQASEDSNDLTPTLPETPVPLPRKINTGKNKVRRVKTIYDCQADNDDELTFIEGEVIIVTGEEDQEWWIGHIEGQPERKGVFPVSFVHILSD
Chain of Beta-lactamase (Salmonella choleraesuis (strain SC-B67), UniProt Q5J463) (Q5J463 whole entry): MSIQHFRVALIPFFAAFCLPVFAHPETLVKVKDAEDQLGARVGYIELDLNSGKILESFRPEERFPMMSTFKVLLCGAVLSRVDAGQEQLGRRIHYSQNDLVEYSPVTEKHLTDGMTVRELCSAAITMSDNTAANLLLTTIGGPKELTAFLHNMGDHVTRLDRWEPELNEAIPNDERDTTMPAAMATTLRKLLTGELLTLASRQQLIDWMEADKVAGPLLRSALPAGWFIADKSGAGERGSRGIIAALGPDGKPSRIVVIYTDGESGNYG
Chain of Broad substrate specificity ATP-binding cassette transporter ABCG2 (Q9UNQ0 whole entry): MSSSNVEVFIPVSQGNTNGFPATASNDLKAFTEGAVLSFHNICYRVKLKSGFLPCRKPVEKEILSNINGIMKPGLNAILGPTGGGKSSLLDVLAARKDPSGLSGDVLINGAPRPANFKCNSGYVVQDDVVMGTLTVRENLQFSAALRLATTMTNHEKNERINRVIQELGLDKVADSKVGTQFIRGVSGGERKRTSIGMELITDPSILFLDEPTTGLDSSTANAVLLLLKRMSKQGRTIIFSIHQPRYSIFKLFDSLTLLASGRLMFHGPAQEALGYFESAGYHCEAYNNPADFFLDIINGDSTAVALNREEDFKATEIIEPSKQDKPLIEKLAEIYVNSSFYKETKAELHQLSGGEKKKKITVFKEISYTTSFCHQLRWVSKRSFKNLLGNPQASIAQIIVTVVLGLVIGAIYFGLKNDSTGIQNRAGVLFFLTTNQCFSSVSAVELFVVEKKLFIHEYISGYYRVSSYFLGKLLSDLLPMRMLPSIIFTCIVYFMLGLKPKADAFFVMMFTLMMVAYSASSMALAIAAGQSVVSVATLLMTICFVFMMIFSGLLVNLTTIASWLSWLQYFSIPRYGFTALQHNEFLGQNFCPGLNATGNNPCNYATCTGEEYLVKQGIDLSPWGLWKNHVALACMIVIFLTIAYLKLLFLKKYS
Chain of Eukaryotic translation initiation factor 4E (P63073 whole entry): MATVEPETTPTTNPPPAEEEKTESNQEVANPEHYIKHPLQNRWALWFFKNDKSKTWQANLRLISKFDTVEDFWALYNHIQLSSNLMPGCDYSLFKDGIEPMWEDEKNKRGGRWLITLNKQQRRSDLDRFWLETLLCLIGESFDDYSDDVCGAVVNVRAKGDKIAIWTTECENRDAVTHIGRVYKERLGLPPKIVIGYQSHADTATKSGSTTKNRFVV
Chain of Hepatocyte nuclear factor 4-alpha (P41235 whole entry, the tested form may be a part): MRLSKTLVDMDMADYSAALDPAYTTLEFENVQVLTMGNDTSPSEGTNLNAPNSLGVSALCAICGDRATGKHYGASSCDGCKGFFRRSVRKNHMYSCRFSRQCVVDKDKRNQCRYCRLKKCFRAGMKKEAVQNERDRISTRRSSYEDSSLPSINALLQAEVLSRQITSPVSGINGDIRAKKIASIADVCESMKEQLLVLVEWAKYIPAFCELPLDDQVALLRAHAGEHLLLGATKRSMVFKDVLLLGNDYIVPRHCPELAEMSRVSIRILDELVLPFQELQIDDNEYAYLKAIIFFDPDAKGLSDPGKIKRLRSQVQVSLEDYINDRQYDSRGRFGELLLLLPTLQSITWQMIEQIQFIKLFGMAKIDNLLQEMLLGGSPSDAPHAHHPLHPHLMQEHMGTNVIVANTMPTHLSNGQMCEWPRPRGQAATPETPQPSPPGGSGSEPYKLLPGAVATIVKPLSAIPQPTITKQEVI

## COc1ccc(-c2cc3nc(C)cc(N4CCN(C(=O)c5cccnc5)CC4)n3n2)cc1
[1]
  EC50: 19 µM (inactive)
[2]
  EC50: 10.7 µM (active)

## COc1ccc2c(c1)CC/C(=C\c1ccc(OC)c(Cn3nc(C)cc3C)c1)C2=O
[3]
  IC50: 26.8 µM (inactive)
Estrogen receptor
  IC50: > 50 µM (not active)

## CCOC(=O)N1CCN(S(=O)(=O)c2ccc(C(=O)Nc3sc4c(c3C(=O)OC)CCN(C)C4)cc2)CC1
[4]
  AC50: 17.1 µM (active)
[5]
  AC50: 16.8 µM (active)

## O=C(CSc1nnc(NC(=O)c2ccccc2)s1)NCc1ccco1
Beta-lactamase [6]
  IC50: > 59.6 µM (inactive)
Beta-lactamase [7]
  IC50: > 59.6 µM (inactive)
Beta-lactamase [8]
  IC50: > 59.6 µM (inactive)

## O=C(c1ccc(CNc2c(N3CCCC3)c(=O)c2=O)cc1)N1CCC(c2ccccc2)CC1
[9]
  CC50: > 100 µM (inconclusive)

## COc1ccc(-c2nn(-c3ccccc3)cc2/C=C/C(=O)N2CCN(c3ccccn3)CC2)cc1
[10]
  EC50: 1.64 µM (active)
Streptococcus
  EC50: 39.3 µM (active)
[11]
  EC50: > 60 µM (not active)
[12]
  EC50: 3.86 µM (active)
[13]
  EC50: 2.34 µM (active)
Streptokinase A
  EC50: > 150 µM (not active)
[14]
  EC50: 0.41 µM (active)

## CC(=O)Oc1c(Br)cc(N(C(C)=O)S(=O)(=O)c2ccccc2)c2ccccc12
Vero
  CC50: 39.8 µM (active)
Protein RecA
  EC50: 2.81 µM (active)
[15]
  AC50: 3.76 µM (active)
Genome polyprotein
  IC50: 49.8 µM (active)
[16]
  IC50: 6.11 µM (active)

## Cc1ccc(-n2c(C)cc(/C=N/Nc3ccc([N+](=O)[O-])cn3)c2C)cc1
[17]
  EC50: > 29.9 µM (inactive)
[18]
  IC50: > 29.9 µM (inactive)
[19]
  IC50: > 64 µM (inactive)

## CN(CC(=O)N1CCN(c2ccccn2)CC1)S(=O)(=O)c1ccc(Br)cc1
[20]
  EC50: 82.8 nM (active) and 35.6 nM (active)
[21]
  EC50: 0.0191 µM (active)

From ChEMBL document CHEMBL1201862, “PubChem BioAssay data set” (2004)
